pIC50: −log10 of the molar value.
What was measured:
[1] = target: T1, P-glycoprotein (P-gp, ABCB1) (Homo sapiens, UniProt P08183); experiment: inside-out vesicular transport inhibition assay with tritiated probe substrate; type: biochemical
T1 construct: inside-out membrane vesicles prepared from HEK293 cells overexpressing human P-gp

[2] = target: T1, P-glycoprotein (P-gp, ABCB1); experiment: inside-out vesicular transport inhibition assay with tritiated probe substrate; also Caco-2 bidirectional transport ([…]); type: biochemical

T1 sequence (P08183 whole entry): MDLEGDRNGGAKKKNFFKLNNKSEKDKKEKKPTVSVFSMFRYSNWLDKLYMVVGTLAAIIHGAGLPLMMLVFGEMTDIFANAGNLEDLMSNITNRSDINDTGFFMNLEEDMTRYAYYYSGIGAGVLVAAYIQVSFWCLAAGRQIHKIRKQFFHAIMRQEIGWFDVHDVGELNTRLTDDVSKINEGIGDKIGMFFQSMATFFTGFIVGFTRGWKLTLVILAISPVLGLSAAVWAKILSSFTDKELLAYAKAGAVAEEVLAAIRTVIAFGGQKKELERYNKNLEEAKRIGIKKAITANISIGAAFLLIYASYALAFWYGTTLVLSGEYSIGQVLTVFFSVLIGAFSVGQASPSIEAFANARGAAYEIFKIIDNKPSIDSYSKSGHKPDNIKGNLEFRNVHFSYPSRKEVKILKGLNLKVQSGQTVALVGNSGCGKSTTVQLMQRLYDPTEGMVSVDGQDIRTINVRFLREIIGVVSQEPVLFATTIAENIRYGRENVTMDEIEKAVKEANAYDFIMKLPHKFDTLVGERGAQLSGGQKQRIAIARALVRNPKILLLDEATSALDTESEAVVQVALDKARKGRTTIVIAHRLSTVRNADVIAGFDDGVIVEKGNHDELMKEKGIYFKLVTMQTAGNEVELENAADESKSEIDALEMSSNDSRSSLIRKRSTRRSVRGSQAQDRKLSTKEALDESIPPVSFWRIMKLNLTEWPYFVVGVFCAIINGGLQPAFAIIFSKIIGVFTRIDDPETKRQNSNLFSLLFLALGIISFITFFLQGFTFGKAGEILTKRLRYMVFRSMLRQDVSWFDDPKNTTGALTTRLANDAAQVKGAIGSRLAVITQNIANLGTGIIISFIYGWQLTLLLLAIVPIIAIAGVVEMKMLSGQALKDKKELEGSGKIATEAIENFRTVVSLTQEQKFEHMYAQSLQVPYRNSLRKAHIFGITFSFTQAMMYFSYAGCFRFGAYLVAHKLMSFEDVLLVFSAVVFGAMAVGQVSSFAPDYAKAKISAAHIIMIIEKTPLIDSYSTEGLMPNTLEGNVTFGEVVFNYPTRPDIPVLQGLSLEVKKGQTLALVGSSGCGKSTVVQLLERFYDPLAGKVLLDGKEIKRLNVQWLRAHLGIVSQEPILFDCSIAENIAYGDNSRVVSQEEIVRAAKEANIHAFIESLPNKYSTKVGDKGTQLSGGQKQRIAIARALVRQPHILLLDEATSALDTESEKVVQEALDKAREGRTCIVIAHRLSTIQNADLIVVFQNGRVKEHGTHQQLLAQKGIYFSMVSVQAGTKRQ

pIC50 [2]	Compound	pIC50 [1]
–	C=CC(=O)N1CCC[C@@H](n2nc(-c3ccc(Oc4ccccc4)cc3)c3c(N)ncnc32)C1 [ibrutinib]	5.22
4.24	CC#CC(=O)N1CCC[C@H]1c1nc(-c2ccc(C(=O)Nc3ccccn3)cc2)c2c(N)nccn12 [acalabrutinib]	–
